Several values for one entry are separate records, joined by “and”; a condition that tells them apart may be missing. Identical values can stand only once. Like-named read-outs stand apart in the source and are kept apart here.
Assays:
Zebrafish embryos [1] = conditions: zebrafish (Danio rerio)
Method: (§1) An HPLC equipped with a quaternary pump, DAD detector, degasser, column oven and an automatic injection system was used in this set of experiments (Thermo® Scientific, Sunnyvale, USA). Stock standard solutions (1 M) of Labio_16 and Labio_17 were prepared by diluting each standard in DMSO. Standard solutions were prepared by diluting the stock solution in fish water, yielding final concentrations of 0.625, 1.25, 2.50, 5.0 and 10.0 μM for Labio_16; and 0.625, 1.25, 2.50, 5.0, 10.0 and 20 μM for Labio_17 in a final volume of 0.5 mL.
(§2) Chromatographic separations were carried out using a Nucleodur C-18 column at 20 °C. The mobile phase was a 20:80% mixture of 0.1% glacial acetic acid and acetonitrile:methanol 1:1 (v/v) for Labio_16, and a mixture of 20:80% of 20 mM of ammonium acetate and acetonitrile:methanol 1:1 (v/v) for Labio_17. A flow rate of 1.5 mL min^−1 was employed in isocratic mode, with run time of 7 minutes for Labio_16 and 12 minutes for Labio_17. The DAD detector was set at 300 nm and a full scan was continuously performed. The calibration curve for both analytes presented a correlation coefficient above 0.99.

[2] = biological target: T1, MtInhA:NADH binary complex (Mycobacterium tuberculosis, UniProt P9WGR1); experiment: biochemical; assay type: binding; conditions: for ΔG: estimated from ΔH and ΔS (Eq. 7); for ΔH / ΔS: van't Hoff analysis, 15–30 °C
T1 construct: made in house
T1 sequence (P9WGR1 whole entry, looked up, one chain of several): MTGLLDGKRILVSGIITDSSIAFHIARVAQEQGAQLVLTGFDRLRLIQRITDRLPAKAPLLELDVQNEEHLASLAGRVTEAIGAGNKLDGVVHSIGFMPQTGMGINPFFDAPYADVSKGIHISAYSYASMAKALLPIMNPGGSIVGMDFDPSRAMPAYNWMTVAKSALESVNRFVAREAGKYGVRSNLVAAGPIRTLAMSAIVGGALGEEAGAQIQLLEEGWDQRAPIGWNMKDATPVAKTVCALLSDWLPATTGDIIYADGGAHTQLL

M. tuberculosis H37Rv = experiment: microbe, parasite or virus in culture; assay type: cell-based; conditions: Mycobacterium tuberculosis
Zebrafish embryos [3] = experiment: Zebrafish embryo toxicity: survival, hatching, heart frequency; assay type: in vivo, Danio rerio; conditions: for cardiotoxicity in the Zebrafish model: overall conclusion; for survival rate: treated from 2 hpf for 5 days, vs controls, Kaplan Meier
Method: Wild-type Zebrafish embryos were obtained from natural mating of adult Danio rerio bred[25] and maintained in an automated re-circulating tank system (Tecniplast, Italy). At 2 hpf (hours post fertilization) embryos were treated with different concentrations of compounds Labio_16 and Labio_17. Both compounds were diluted in DMSO for stock solutions of […] and diluted in fish water (Reverse Osmosis equilibrated with Instant Ocean Salt) to final concentrations of 1.0 μM, 3.5 μM and 7.0 μM (compound Labio_16) and 0.1 μM, 1.0 μM, 7.5 μM and 13.0 μM (compound Labio_17). Since both compounds were diluted first in DMSO, there were two control groups for each treatment, one only with fish water and the other one with the highest concentration of DMSO used in the treatments (0.035% for Labio_16 treatment and 0.065% for Labio_17 treatment).
Embryos were maintained in a 96 well plate during the 5 days of treatment inside an incubator with light-dark cycle of 14–10 hours and controlled temperature (28 °C)[25]. The solution pH and conductivity were monitored. Survival and hatching efficiency were accompanied under a stereomicroscope (OlympusSZ4045) every day, as well as developmental toxicity. Data for survival evaluation were analysed by Kaplan Meier survival test.
At 2 dpf (days post fertilization) and 5 dpf embryos heart frequency were quantified. For this, a single embryo per larvae was placed under a stereomicroscope (OlympusSZ4045) in petri-dishes with system water and their heart rate was monitored for 60 seconds by a blind experimenter (N = 10 in triplicates)[25][26]. For all procedures, temperature was kept constant at 28 °C. Data were analysed using One-way ANOVA, followed by Tukey multiple comparisons test.

in vitro = assay type: cell-based
Method: Cellular viability determination after incubation with the test compounds (Labio_16 and Labio_17) was performed essentially as described elsewhere. Briefly, Vero (and Hacat/RAW) cells were grown in DMEM media supplemented with 10% inactivated fetal bovine serum and 1% penicillin-streptomycin. The cells were maintained in culture bottles at 37 °C in humidified atmosphere with 5% CO2. Cells were seeded at 3 × 10^3 cells per well (for Hacat/RAW or Vero) in a 96-well microtiter plate and incubated for 24 hours to adhere. Medium was carefully aspirated and replaced with 90 μL DMEM, and 10 μL of stocks of the chemical compounds were added to a final concentration of 20 μM (DMSO 2.0%, v/v). After 72 h at 37 °C under 5% of CO2, the cultures were incubated with 3-(4,5-dimethylthiazol-2-yl)-2,5-diphenyltetrazolium bromide (MTT) (1 mg mL^−1) for 3 h. The formazan crystals were dried at room temperature for at least 24 h and dissolved in DMSO. The absorbance was measured at 595 nm (Spectra Max M2e, Molecular Devices, USA). The percentage of cell viability for treated groups was reported considering the control wells (DMSO 0.5%-treated) as 100% of cell viability: cell viability (%) = (absorbance of treated wells/absorbance of control wells) x 100. Data are expressed as mean of cell viability ± standard error of mean of three independent experiments performed in triplicate.

[4] = assay type: physicochemical
Method: as §1, §2

[5] = 216 h, 7 days + 48 h resazurin, read-out: MIC H37Rv
[6] = conversion of μg mL^−1 value, read-out: MIC H37Rv converted to

Row | Structure (SMILES) | decrease of compound in in vivo assay medium (Zebrafish embryos [1]) | Kd ([2]; 25 °C (298.15 K)) | ΔG [2] | ΔH [2] | ΔS [2] | MIC (M. tuberculosis H37Rv; [5]) | MIC (M. tuberculosis H37Rv; [6]) | cardiotoxicity in the Zebrafish model (Zebrafish embryos [3]) | survival rate (Zebrafish embryos [3]) | viability at 72 h, 20 µM (in vitro; African green monkey) | viability at 72 h, 20 µM (in vitro; human) | decrease in compound concentration in stability test [4] | other results
1 | CCOC(=O)c1ccc2nc(C)cc(Nc3ccc(N4CCCCC4)cc3)c2c1 [Labio_17] | 55 ± 2% | 7.2 ± 0.5 µM | -7.1 ± 0.8 kcal/mol | -23.3 ± 1.9 kcal/mol | −54.5 ± 6.5 cal.mol^−1.K^−1 | 5 µg/mL | 12.8 µM | signs of cardiotoxicity | dose-dependent statistical difference | 85 ± 8% | 84 ± 14% | 21% | heart frequency at 5 dpf (Zebrafish embryos [3]; 0.1 μM and 1.0 μM against H2O control): no difference; heart frequency at 5 dpf (Zebrafish embryos [3]; 1.0 μM compared to DMSO control): no difference; hatching efficiency (Zebrafish embryos [3]; two highest concentrations, 13.0 μM and 7.5 μM): delayed hatching efficiency
2 | Cc1ccccc1OCc1nc(-c2ccc(NC(=O)c3cccs3)cc2)no1 [Labio_16] | 55 ± 2% | 1.5 ± 0.2 µM | -8.0 kcal/mol and -8.0 ± 3.6 kcal/mol | -9.4 kcal/mol and -9.4 ± 06 kcal/mol | −4.8 cal.mol^−1.K^−1 and −4.8 ± 2.2 cal.mol^−1.K^−1 | 2.5 µg/mL | 6.4 µM | no cardiotoxicity | statistical difference | 89 ± 12% | 104 ± 12% | 21% | Kd ([2]; 15 °C): 0.9 ± 0.2 µM; Kd ([2]; 20 °C): 1.2 ± 0.1 µM; Kd ([2]; 30 °C): 2 ± 0.1 µM; heart frequency at 5 dpf (Zebrafish embryos [3]; 3.5 μM and 7.0 μM against DMSO control): a decrease in the heart rate; hatching efficiency (Zebrafish embryos [3]; 1.0, 3.5, 7.0 μM vs controls): No difference; heart frequency at 2 dpf (Zebrafish embryos [3]; all groups, one-way ANOVA): no difference

— publication PMC5402281, “Functional, thermodynamics, structural and biological studies of in silico-identified inhibitors of Mycobacterium tuberculosis enoyl-ACP(CoA) reductase enzyme” (Scientific Reports, 2017)
